Source: US20240398784A1, “C-LINKED ISOQUINOLINE AMIDES AS LRRK2 INHIBITORS, PHARMACEUTICAL COMPOSITIONS, AND USES THEREOF” (Merck Sharp & Dohme LLC, priority 2021, published 2024)

Biological target: LRRK2 G2019S (Homo sapiens, UniProt Q5S007, G2019S)
Experiment: LRRK2 G2019S Km ATP LanthaScreen assay
Type: biochemical
Details: read-out: LRRK2 pIC50 (converted)

Sequence of LRRK2 G2019S (Q5S007 whole entry G2019S): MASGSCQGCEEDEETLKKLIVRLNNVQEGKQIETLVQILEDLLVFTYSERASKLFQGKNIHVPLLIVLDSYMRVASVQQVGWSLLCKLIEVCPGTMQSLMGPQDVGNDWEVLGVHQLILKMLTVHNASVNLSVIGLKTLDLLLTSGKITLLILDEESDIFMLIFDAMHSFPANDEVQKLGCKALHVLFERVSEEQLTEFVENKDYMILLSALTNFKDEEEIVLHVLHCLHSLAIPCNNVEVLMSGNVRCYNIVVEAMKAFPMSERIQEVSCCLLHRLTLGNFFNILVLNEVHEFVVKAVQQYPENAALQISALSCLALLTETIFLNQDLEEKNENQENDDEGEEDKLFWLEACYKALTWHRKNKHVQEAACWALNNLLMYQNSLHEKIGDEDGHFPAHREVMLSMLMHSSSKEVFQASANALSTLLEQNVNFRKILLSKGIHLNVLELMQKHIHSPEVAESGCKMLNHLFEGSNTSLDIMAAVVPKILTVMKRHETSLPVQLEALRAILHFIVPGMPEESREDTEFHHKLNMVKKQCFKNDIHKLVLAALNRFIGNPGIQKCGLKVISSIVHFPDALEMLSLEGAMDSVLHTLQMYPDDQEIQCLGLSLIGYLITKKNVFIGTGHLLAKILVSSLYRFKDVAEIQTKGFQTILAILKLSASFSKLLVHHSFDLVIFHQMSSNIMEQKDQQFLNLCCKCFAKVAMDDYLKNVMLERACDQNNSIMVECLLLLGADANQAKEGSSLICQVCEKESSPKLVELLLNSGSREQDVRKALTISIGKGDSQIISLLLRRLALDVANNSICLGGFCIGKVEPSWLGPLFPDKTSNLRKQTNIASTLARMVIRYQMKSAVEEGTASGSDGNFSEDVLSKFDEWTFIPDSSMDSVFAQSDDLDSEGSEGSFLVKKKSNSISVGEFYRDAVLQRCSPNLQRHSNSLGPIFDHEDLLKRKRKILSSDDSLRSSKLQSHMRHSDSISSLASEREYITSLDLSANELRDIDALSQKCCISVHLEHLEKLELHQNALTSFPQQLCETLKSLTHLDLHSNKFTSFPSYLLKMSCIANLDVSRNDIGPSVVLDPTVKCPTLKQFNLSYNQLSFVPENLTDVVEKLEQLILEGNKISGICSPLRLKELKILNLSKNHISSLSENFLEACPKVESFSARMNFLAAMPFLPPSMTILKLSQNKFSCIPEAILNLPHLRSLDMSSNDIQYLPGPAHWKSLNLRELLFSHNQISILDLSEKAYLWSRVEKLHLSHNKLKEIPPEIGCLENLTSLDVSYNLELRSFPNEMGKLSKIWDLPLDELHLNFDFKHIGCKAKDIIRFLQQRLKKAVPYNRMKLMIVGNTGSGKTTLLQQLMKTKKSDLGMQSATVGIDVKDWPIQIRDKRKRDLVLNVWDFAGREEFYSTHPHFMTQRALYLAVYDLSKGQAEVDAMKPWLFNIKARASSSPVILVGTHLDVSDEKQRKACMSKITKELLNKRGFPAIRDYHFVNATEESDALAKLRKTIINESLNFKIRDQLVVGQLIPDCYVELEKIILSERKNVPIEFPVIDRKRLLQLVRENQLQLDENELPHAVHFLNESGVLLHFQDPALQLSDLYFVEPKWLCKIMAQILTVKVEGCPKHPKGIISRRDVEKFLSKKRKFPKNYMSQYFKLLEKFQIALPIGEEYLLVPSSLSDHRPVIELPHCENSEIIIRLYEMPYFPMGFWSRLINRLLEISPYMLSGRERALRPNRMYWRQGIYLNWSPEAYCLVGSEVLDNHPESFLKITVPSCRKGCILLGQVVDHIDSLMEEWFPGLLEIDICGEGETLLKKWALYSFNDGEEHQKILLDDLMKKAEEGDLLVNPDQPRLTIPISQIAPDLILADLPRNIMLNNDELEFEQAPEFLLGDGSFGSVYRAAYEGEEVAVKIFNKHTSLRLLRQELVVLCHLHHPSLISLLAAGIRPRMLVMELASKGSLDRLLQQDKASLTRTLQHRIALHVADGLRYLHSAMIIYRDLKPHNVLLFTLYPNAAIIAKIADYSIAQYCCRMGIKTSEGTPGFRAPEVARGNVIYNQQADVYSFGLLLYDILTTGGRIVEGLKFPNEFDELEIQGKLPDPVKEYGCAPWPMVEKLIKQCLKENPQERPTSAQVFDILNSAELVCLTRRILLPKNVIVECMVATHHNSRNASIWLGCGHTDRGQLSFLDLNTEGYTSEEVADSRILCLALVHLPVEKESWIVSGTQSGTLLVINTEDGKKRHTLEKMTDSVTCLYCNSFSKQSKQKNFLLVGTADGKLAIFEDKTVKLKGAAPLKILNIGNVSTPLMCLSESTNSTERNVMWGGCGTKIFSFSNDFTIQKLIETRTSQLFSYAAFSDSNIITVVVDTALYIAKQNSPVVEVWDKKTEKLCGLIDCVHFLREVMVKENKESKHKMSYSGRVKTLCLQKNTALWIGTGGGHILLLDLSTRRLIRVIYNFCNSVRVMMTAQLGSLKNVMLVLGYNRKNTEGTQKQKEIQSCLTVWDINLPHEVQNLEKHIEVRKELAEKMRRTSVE

SMILES | IC50 [nM]
CC1(N2CCC(c3cc4cc(NC(=O)C5CC56CCOCC6)ncc4cc3Cl)CC2)CCOC1 (stereo not shown) [Ex-2.22] | 4.57
N#CC1(c2cc3cc(NC(=O)C4CC4)ncc3cc2F)CC12CC2 (single isomer, unassigned) [Ex-18.9, (R or S)-N-(6-(1-cyanospiro[2.2]pentan-1-yl)-7-fluoroisoquinolin-3-yl)cyclopropanecarboxamide] | 35.5
CC(C)(F)C1CC1C(=O)Nc1cc2cc(C3CCN(C4(C)COCC4O)CC3)c(Cl)cc2cn1 (single isomer, unassigned) [Ex-4.48, N-(7-chloro-6-(1-(4-hydroxy-3-methyltetrahydrofuran-3-yl)piperidin-4-yl)isoquinolin-3-yl)-2-(2-fluoropropan-2-yl)cyclopropane-1-carboxamide] | 1.26
CC1(C)CC(C(=O)Nc2cc3cc(C4CCN(C5(C)CCOC5)CC4)c(Cl)cc3cn2)CCO1 (single isomer, unassigned) [Ex-6.46, N-(7-chloro-6-(1-(3-methyltetrahydrofuran-3-yl)piperidin-4-yl)isoquinolin-3-yl)-2,2-dimethyltetrahydro-2H-pyran-4-carboxamide] | 1.2
CC1(N2CCC(c3cc4cc(NC(=O)C5C6CCOCC65)ncc4cc3Cl)CC2)COCC1F (single isomer, unassigned) [Ex-6.41, N-(7-chloro-6-(1-(4-fluoro-3-methyltetrahydrofuran-3-yl)piperidin-4-yl)isoquinolin-3-yl)-3-oxabicyclo[4.1.0]heptane-7-carboxamide] | 0.0813
Cc1ccc(C2CC2C(=O)Nc2cc3cc(C4CCN(C5(C)COCC5O)CC4)c(Cl)cc3cn2)s1 (single isomer, unassigned) [Ex-4.57, N-(7-chloro-6-(1-(4-hydroxy-3-methyltetrahydrofuran-3-yl)piperidin-4-yl)isoquinolin-3-yl)-2-(5-methylthiophen-2-yl)cyclopropane-1-carboxamide] | 41.7
Cc1cc2cnc(NC(=O)C3CC34CCOC4)cc2cc1C1CCN(C2(C)COCC2F)CC1 (single isomer, unassigned) [Ex-15.13, N-(6-(1-(4-fluoro-3-methyltetrahydrofuran-3-yl)piperidin-4-yl)-7-methylisoquinolin-3-yl)-5-oxaspiro[2.4]heptane-1-carboxamide] | 2.69
CC1(C)CCC(C(=O)Nc2cc3cc(C4CCC(N5CCC(F)C5)CC4)c(Cl)cc3cn2)CO1 (single isomer, unassigned) [Ex-5.19, N-(7-chloro-6-(4-(3-fluoropyrrolidin-1-yl)cyclohexyl)isoquinolin-3-yl)-6,6-dimethyltetrahydro-2H-pyran-3-carboxamide] | 2.34

Further lines, results first:

IC50 [nM] | SMILES
22.4 | CCC1C(C(=O)Nc2cc3cc(C4CC(C#N)C4)c(Cl)cc3cn2)C1c1cnn(C)c1 (stereo not shown) [Ex-9.18, N-(7-chloro-6-(3-cyanocyclobutyl)isoquinolin-3-yl)-2-ethyl-3-(1-methyl-1H-pyrazol-4-yl)cyclopropane-1-carboxamide]
1.86 | N#CC1(c2ccc3cnc(NC(=O)C4CC4c4ccncc4)cc3c2)CC12CC2 (stereo not shown) [Ex-2.41]
0.398 | CC1(N2CCC(c3cc4cc(NC(=O)C5C6CCCOC65)ncc4cc3Cl)CC2)COCC1O (single isomer, unassigned) [Ex-4.12, N-(7-chloro-6-(1-(4-hydroxy-3-methyltetrahydrofuran-3-yl)piperidin-4-yl)isoquinolin-3-yl)-2-oxabicyclo[4.1.0]heptane-7-carboxamide]
129 | CC(CC#N)c1cc2cc(NC(=O)C3CC3c3ccccn3)ncc2cc1Cl (single isomer, unassigned) [Ex-9.22, N-(7-chloro-6-(1-cyanopropan-2-yl)isoquinolin-3-yl)-2-(pyridin-2-yl)cyclopropane-1-carboxamide]
0.0813 | CC1(N2CCC(c3cc4cc(NC(=O)C5C6CCCOC65)ncc4cc3Cl)CC2)COCC1O (single isomer, unassigned) [Ex-4.14, N-(7-chloro-6-(1-(4-hydroxy-3-methyltetrahydrofuran-3-yl)piperidin-4-yl)isoquinolin-3-yl)-2-oxabicyclo[4.1.0]heptane-7-carboxamide]
